{"source": "patent US20050187240A1", "about": "“Aaptamine and isoaaptamine and structural modifications thereof” (The Arizona Board of Regents, Acting for and on behalf of …, priority 2004, published 2005)", "key": {"[1]": {"test_system": "CNS SF-268", "assay": "Cancer cell growth inhibition, CNS SF-268", "assay_type": "cell-based, human", "details": "Homo sapiens, CNS SF-268", "description": "(§1) Biology The cancer cell growth inhibitory properties were examined using the murine P388 lymphocytic leukemia cell line and a selection of human cancer cell lines.\n(§2) All of the synthetic products were evaluated against a minipanel of human cancer cell lines, the murine P388 lymphocytic leukemia cell line and a selection of microorganisms."}, "[2]": {"test_system": "Escherichia coli", "assay": "Broth microdilution susceptibility assay, Escherichia coli", "assay_type": "cell-based"}, "[3]": {"target": "T1, PKC alpha (Homo sapiens, UniProt P17252)", "assay": "Inhibition of PKC catalytic activity (peptide substrate phosphorylation)", "assay_type": "biochemical", "details": "for inhibition at 30 µM: read-out: percent inhibition of PKC catalytic activity", "description": "We further evaluated the ability of the derivatives to inhibit PKC catalytic activity. […] Inhibition by 10c was 19.5±7.6% and inhibition by 4, 5, and 9a, b, c was 6% or less (all values are mean±SEM, three experiments). […] In both cases, the inhibition curves were steeper than predicted for a competitive inhibitor, consistent with a complicated mechanism of action (Hill coefficients for 10a and 10b of 1.5±0.1 and 2.0±0.5, respectively)."}, "[4]": {"test_system": "Micrococcus luteus", "assay": "Broth microdilution susceptibility assay, Micrococcus luteus", "assay_type": "cell-based"}, "[5]": {"test_system": "colon KM 20L2", "assay": "Cancer cell growth inhibition, colon KM 20L2", "assay_type": "cell-based, human", "details": "Homo sapiens, colon KM 20L2", "outline": "(§3)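 Growth inhibition in murine P388 leukemia and human cancer cell line panels (Arizona State University minipanel and NCI 60-cell screen).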"}, "[6]": {"test_system": "Vero cells", "details": "cited from earlier work"}, "[7]": {"test_system": "Streptococcus pneumoniae", "assay": "Broth microdilution susceptibility assay, Streptococcus pneumoniae", "assay_type": "cell-based"}, "[8]": {"test_system": "Cryptococcus neoformans", "assay": "Broth microdilution susceptibility assay, Cryptococcus neoformans", "assay_type": "cell-based"}, "[9]": {"test_system": "Stenotrophomonas maltophilia", "assay": "Broth microdilution susceptibility assay, Stenotrophomonas maltophilia", "assay_type": "cell-based"}, "[10]": {"test_system": "prostrate DU-145", "assay": "Cancer cell growth inhibition, prostate DU-145", "assay_type": "cell-based, human", "details": "Homo sapiens", "description": "as §1, §2"}, "[11]": {"test_system": "lung NCI-H460", "assay": "Cancer cell growth inhibition, lung NCI-H460", "assay_type": "cell-based, human", "details": "Homo sapiens, lung NCI-H460", "outline": "as §3"}, "[12]": {"test_system": "Staphylococcus aureus", "assay": "Broth microdilution susceptibility assay, Staphylococcus aureus", "assay_type": "cell-based"}, "[13]": {"test_system": "murine P388 lymphocytic leukemia cell line", "assay": "Cancer cell growth inhibition, murine P388 lymphocytic leukemia cell line", "assay_type": "cell-based", "details": "Mus musculus", "outline": "as §3"}, "[14]": {"test_system": "Neisseria gonorrhoeae", "assay": "Broth microdilution susceptibility assay, Neisseria gonorrhoeae", "assay_type": "cell-based"}, "[15]": {"test_system": "pancreas BXPC-3", "assay": "Cancer cell growth inhibition, pancreas BXPC-3", "assay_type": "cell-based, human", "details": "Homo sapiens, pancreas BXPC-3", "description": "as §1, §2"}, "[16]": {"test_system": "Enterobacter cloacae", "assay": "Broth microdilution susceptibility assay, Enterobacter cloacae", "assay_type": "cell-based"}, "[17]": {"test_system": "Enterococcus faecalis", "assay": "Broth microdilution susceptibility assay, Enterococcus faecalis", "assay_type": "cell-based"}, "[18]": {"test_system": "breast MCF-7", "assay": "Cancer cell growth inhibition, breast MCF-7", "assay_type": "cell-based, human", "details": "Homo sapiens, MCF7, breast MCF-7", "description": "as §1, §2"}, "[19]": {"test_system": "Candida albicans", "assay": "Broth microdilution susceptibility assay, Candida albicans", "assay_type": "cell-based"}, "[20]": {"test_system": "herpes simplex virus type 1 (HSV-1)", "details": "cited from earlier work"}, "[21]": {"test_system": "Mycobacterium tuberculosis H37Rv", "assay": "Microplate Alamar Blue Assay, Mycobacterium tuberculosis", "assay_type": "cell-based", "details": "6.25 μg/ml"}, "[22]": {"target": "T1, PKC alpha", "assay": "Inhibition of [3H]phorbol 12,13-dibutyrate binding to PKC alpha", "details": "read-out: inhibition of [3H]phorbol 12,13-dibutyrate binding to PKC alpha", "outline": "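Compounds tested at a single 30 μM concentration for displacement of [3H]phorbol 12,13-dibutyrate binding to PKC alpha, reported as percent inhibition. Triplicate measurements in one or three independent experiments depending on compound.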"}, "[23]": {"test_system": "genes whose products are involved in DNA synthesis", "assay": "cDNA microarray assay with THP-1 cells", "assay_type": "cell-based, human", "details": "THP-1 cells treated for 23 hours with 0.25 μg/ml"}, "[24]": {"test_system": "THP-1 human monocytic leukemia cells", "assay": "Flow cytometry cell cycle analysis of THP-1 cells", "assay_type": "cell-based", "details": "THP-1 cells pretreated for 24 hours with 0.25 μg/ml"}, "[25]": {"details": "Table 3, read-out: Cancer cell growth inhibitory ED50"}, "[26]": {"details": "Table 5, read-out: Cancer Cell Line Results ED50"}, "[27]": {"details": "Table 4, read-out: Range of minimum inhibitory concentration"}, "[28]": {"details": "DU-145, Table 5, prostate DRU-145, read-out: Cancer Cell Line Results ED50"}, "[29]": {"details": "Table 5, leukemia P388, read-out: Cancer Cell Line Results ED50"}}, "note": "Like-named read-outs stand apart in the source and are kept apart here.", "data": [{"smiles": "COc1cc2c3c(ccnc3c1OC)N(C)C=C2", "note": "[Compound 4, 4-Methylaaptamine]", "values": [{"measurement": "IC50", "setting": "[1]; [25]", "value": "> 10", "unit": "µg/mL"}, {"measurement": "IC50", "setting": "[1]; [26]", "value": "> 10", "unit": "µg/mL"}, {"measurement": "MIC", "setting": "[2]; [27]", "value": "> 64", "unit": "µg/mL"}, {"measurement": "inhibition at 30 µM", "setting": "[3]; 30 μM compound, 1 μM phorbol 12-myristate 13-acetate, 100 μg/ml phospholipid, mean±SEM, three experiments", "value": "≤ 6", "unit": "%"}, {"measurement": "MIC", "setting": "[4]; [27]", "value": "> 64", "unit": "µg/mL"}, {"measurement": "IC50", "setting": "[5]; [25]", "value": "> 10", "unit": "µg/mL"}, {"measurement": "IC50", "setting": "[5]; [26]", "value": "> 10", "unit": "µg/mL"}, {"measurement": "toxicity to Vero cells", "setting": "[6]", "value": "low toxicity"}, {"measurement": "MIC", "setting": "[7]; [27]", "value": "> 64", "unit": "µg/mL"}, {"measurement": "MIC", "setting": "[8]; [27]", "value": "> 64", "unit": "µg/mL"}, {"measurement": "MIC", "setting": "[9]; Table 4, Stenotrophomonas maltophil, read-out: Range of minimum inhibitory concentration", "value": "> 64", "unit": "µg/mL"}, {"measurement": "IC50", "setting": "[10]; [28]", "value": "> 10", "unit": "µg/mL"}, {"measurement": "IC50", "setting": "[10]; Table 3, prostrate DU-145, read-out: Cancer cell growth inhibitory ED50", "value": "> 10", "unit": "µg/mL"}, {"measurement": "IC50", "setting": "[11]; [25]", "value": "> 10", "unit": "µg/mL"}, {"measurement": "IC50", "setting": "[11]; [26]", "value": "> 10", "unit": "µg/mL"}, {"measurement": "MIC", "setting": "[12]; [27]", "value": "> 64", "unit": "µg/mL"}, {"measurement": "IC50", "setting": "[13]; P388, Table 3, leukemia P-388, read-out: Cancer cell growth inhibitory ED50", "value": "> 10", "unit": "µg/mL"}, {"measurement": "IC50", "setting": "[13]; [29]", "value": "> 10", "unit": "µg/mL"}, {"measurement": "MIC", "setting": "[14]; [27]", "value": "> 64", "unit": "µg/mL"}, {"measurement": "IC50", "setting": "[15]; [25]", "value": "> 10", "unit": "µg/mL"}, {"measurement": "IC50", "setting": "[15]; [26]", "value": "> 10", "unit": "µg/mL"}, {"measurement": "MIC", "setting": "[16]; [27]", "value": "> 64", "unit": "µg/mL"}, {"measurement": "MIC", "setting": "[17]; [27]", "value": "> 64", "unit": "µg/mL"}, {"measurement": "IC50", "setting": "[18]; [25]", "value": "> 10", "unit": "µg/mL"}, {"measurement": "IC50", "setting": "[18]; [26]", "value": "> 10", "unit": "µg/mL"}, {"measurement": "MIC", "setting": "[19]; [27]", "value": "> 64", "unit": "µg/mL"}, {"measurement": "antiviral activity against HSV-1", "setting": "[20]", "value": "potent antiviral activity"}]}, {"smiles": "COc1cc2c3c(cc[n+](Cc4ccccc4)c3c1OC)N(Cc1ccccc1)C=C2.[Cl-]", "note": "[Compound 10a, 1,4-Bis-(benzyl)-8,9-dimethoxy-4H-benzo[de][1,6]naphthyridin-1-ium chloride]", "values": [{"measurement": "IC50", "setting": "[1]; [26]", "value": 0.064, "unit": "µg/mL"}, {"measurement": "Range of minimum inhibitory concentration", "setting": "[2]; Table 6", "value": 8, "unit": "µg/mL"}, {"measurement": "Hill coefficient of PKC inhibition curve", "setting": "[3]", "value": "1.5±0.1"}, {"measurement": "IC50", "setting": "[3]", "value": "20.8 ± 2.5", "unit": "µM"}, {"measurement": "inhibition at 30 µM", "setting": "[3]", "value": "71.1 ± 4.5", "unit": "%"}, {"measurement": "inhibition at 6.25 µg/mL", "setting": "[21]", "value": 98, "unit": "%"}, {"measurement": "Range of minimum inhibitory concentration", "setting": "[4]; Table 6", "value": "0.5 to 2", "unit": "µg/mL"}, {"measurement": "inhibition at 30 µM", "setting": "[22]", "value": 11.8, "unit": "%"}, {"measurement": "IC50", "setting": "[5]; [26]", "value": 0.055, "unit": "µg/mL"}, {"measurement": "Range of minimum inhibitory concentration", "setting": "[7]; Table 6", "value": 32, "unit": "µg/mL"}, {"measurement": "Range of minimum inhibitory concentration", "setting": "[8]; Table 6", "value": "* (no inhibition at 64 μg/mL)"}, {"measurement": "down-regulation of several genes involved in DNA synthesis", "setting": "[23]", "value": "5- to 7 fold"}, {"measurement": "Range of minimum inhibitory concentration", "setting": "[9]; Table 6", "value": "* (no inhibition at 64 μg/mL)"}, {"measurement": "IC50", "setting": "[10]; [28]", "value": 0.036, "unit": "µg/mL"}, {"measurement": "IC50", "setting": "[11]; [26]", "value": 0.26, "unit": "µg/mL"}, {"measurement": "melting point", "value": "175 °C (dec.)"}, {"measurement": "Range of minimum inhibitory concentration", "setting": "[12]; Table 6", "value": "* (no inhibition at 64 μg/mL)"}, {"measurement": "IC50", "setting": "[13]; [29]", "value": 0.234, "unit": "µg/mL"}, {"measurement": "cell cycle effect (propidium iodide flow cytometry)", "setting": "[24]", "value": "accumulation of cells in the GI phase"}, {"measurement": "Range of minimum inhibitory concentration", "setting": "[14]; Table 6", "value": 0.25, "unit": "µg/mL"}, {"measurement": "IC50", "setting": "[15]; [26]", "value": 0.061, "unit": "µg/mL"}, {"measurement": "Range of minimum inhibitory concentration", "setting": "[16]; Table 6", "value": "* (no inhibition at 64 μg/mL)"}, {"measurement": "Range of minimum inhibitory concentration", "setting": "[17]; Table 6", "value": 32, "unit": "µg/mL"}, {"measurement": "IC50", "setting": "[18]; [26]", "value": 0.27, "unit": "µg/mL"}, {"measurement": "Range of minimum inhibitory concentration", "setting": "[19]; Table 6", "value": "* (no inhibition at 64 μg/mL)"}]}]}
